Results from patent US20260191815A1, “THIOACRYLAMIDE DERIVATIVES FOR USE IN THE PREVENTION OR TREATMENT OF LIVER FIBROSIS” (CMR CUREDIAB METABOLIC RESEARCH GMBH, priority 2022, published 2026).

System: CCl4-intoxicated C57BL/6J mice
Test: CCl4-induced liver fibrosis in mice, oral gavage once daily for 2 weeks
Format: in vivo, mouse
Method: C57BL/6J mice were housed in housing cages GM500 (500 cm^3) throughout the experimental phase. Animals' cages litters were changed at least once a week. They were housed in groups of 4 animals on a normal 12-hour light cycle (at 07:30 pm lights off), 22±2° C. and 55±10% relative humidity. Animals were acclimated for 5 days. During the whole phase standard diet (SAFE, Ref.: U8400G10R) and tap water were provided ad libitum.
After the acclimation period, mice were intoxicated with CCl4 i.p. twice weekly for 2 weeks to induce liver fibrosis. Body weight was recorded twice weekly for the 2-week intoxication period. After 2 weeks of CCl4 injection (~72 hours after the 4th injection of CCl4), mice were weighted and bled at ~08:00 am to collect blood (150 μL blood on heparin by retro-orbital bleeding under isoflurane anaesthesia) and measure plasma ALT and AST levels. Mice were then randomized into 2 homogenous groups (n=10/group) based on 1) ALT, 2) AST and 3) body weight.
Mice were treated by oral gavage once daily with vehicle or HK3 for 2 weeks (from day 0 to day 13). During this 2-week treatment period, CCl4 twice weekly i.p. injection was still performed until the end of the in-life phase. Body weight was recorded twice weekly, during the 2-week treatment period.
At the end of the treatment period (~48 hours after the last injection of CCl4), all mice were weighed and 3 h-fasted at ~10:00 am. The last dose of vehicle and test compound was administered at ~10:00 am, prior to blood collection (retro-orbital bleeding under isoflurane anesthesia for maximal volume/heparin) at ~1:00 pm. Plasma was isolated and immediately stored at −80° C.
Subsequently, the liver of each mouse was collected and weighted. Liver samples were dissected from the left lateral lobe for formalin-fixed paraffin-embedded samples for shipment for histology analysis (H&E and Sirius Red staining), % Sirius Red labelling and NAS scoring.
A total of 50 slides, each having a single hepatic lobe section stained with H&E (25) and Sirius red (25) were digitized using a Nanozoomer from Hamamatsu at Sciempath laboratory and posted on a secured digital slide server. They were downloaded and visualized using NDP viewer. Sections were evaluated with knowledge of groups but without knowledge of treatment. Each section was evaluated and individually scored.
A NAFLD scoring system (NAS), with which a total of four variables was qualitatively assessed and ranked with a score: (1) hepatocellular steatosis, (2) liver inflammation, (3) lobular fibrosis, and (4) hepatocyte ballooning.
An individual mouse NAS total score was calculated for each animal by summing up the score for (1) hepatocellular steatosis, (2) liver inflammation, (3) lobular fibrosis, and (4) hepatocyte ballooning. Whole-section histomorphometric measurements of positive area for Sirius Red were performed using computer-assisted image analysis on digitized sections. The histomorphometric measurements were generated with the software from Visiopharm (Denmark) using an automated approach. Analysis was performed on virtual whole sections at 20× magnification for morphometric evaluation. The pixel value at 20× magnification corresponded to 0.46 μm/pixel.
An algorithm was prepared for Sirius Red (SR) morphometric measurement on liver-stained sections. The algorithm was generated with the Bayesian linear segmentation tool in the software package, which was further refined through training on a subset of sections from 5 animals. Major histology section artefacts, as well as, large vascular empty spaces were automatically dissected and removed from area of interest (AOI) or detected positive area. Also, positive collagen from capsule and large vessels media layer was automatically excluded from SR positive area.
The total area analysed or AOI (mm2), the total SR positive area (mm2) and the percent “SR” area/total liver area analysed (%) were determined. […]

[1] = CCl4 mice, oral gavage once daily, 2 weeks

Cc1cc(NC(=S)/C(C#N)=C(\O)C2CC2)ccc1[N+](=O)[O-] [HK3, 2-Cyano-3-cyclopropyl-3-hydroxy-N-(3-methyl-4-nitro-phenyl)-thioacrylamide]
percentage of Sirius Red labelling compared to baseline group (CCl4 mice, liver sections, p<0.01): significantly increased
percentage of Sirius Red labelling compared to the vehicle group (CCl4 mice, liver sections, p<0.05): significantly reduced
number of mice with a fibrosis score equal to 2 (CCl4 mice, n=10/group): 9 mice
number of mice with a fibrosis score equal to 3 (CCl4 mice, n=10/group): 1 mouse
body weight and body weight gain compared to vehicle treatment [1]: not altered
liver weight and relative liver weight compared to vehicle treatment [1]: did not change
plasma ALT and AST levels compared to vehicle treatment [1]: did not change
fibrosis score, treated group versus vehicle-treated group (CCl4 mice, p<0.05): significant difference
fibrosis score, treated group versus baseline group (CCl4 mice, baseline = CCl4 for two weeks only): no significant difference
TNF-α levels in liver homogenates compared to CCl4-treated group (combined administration with CCl4, p<0.05): slight but significant downregulation
